According to patent US20070238700A1, “N-PHENYL-1,1,1-TRIFLUOROMETHANESULFONAMIDE HYDRAZONE DERIVATIVE COMPOUNDS AND THEIR USAGE IN CONTROLLING PARASITES” (priority 2006, published 2007):
Where two headings read alike, the source gives them in different places.

Columns and labels:
Ctenocephalides felis [1] = tested on: Ctenocephalides felis
In short: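 Adult cat fleas (3–7 days post-emergence), 15 per flask in ≥4 replicates, exposed to a dried acetone residue at 1.26 μg/cm^2 on a Coatasil-treated glass flask base. Held at 25±1° C, 75±5% humidity; mortality (immobile or unable to right) scored at 8, 24 and/or 48 h.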

Ctenocephalides felis [2] = experiment: Ctenocephalides felis adulticide assay: C. felis dose response (LC50)
Source text: c) Ctenocephalides felis Adulticide Assay: C. felis Dose Response
The purpose of this example was to determine the LC50 when cat fleas were contacted with a glass surface treated with sample compounds or formulations prepared as described above. […] The test species was the cat flea (Ctenocephalides felis). The strain used was obtained from external suppliers as pupae and held in the laboratory under testing conditions until the adults had emerged. Fifteen (15) fleas were used in a minimum of four replicates for each dose level (total of 60 fleas per dose level). The insects were selected to be in the adult life stage, aged between 3 and 7 days post emergence.
The compounds to be tested were dissolved in acetone just prior to testing. Samples of compounds were stored in a refrigerator (5±1° C.) unless otherwise specified. During the mortality testing, the temperature was maintained at 25±1° C. Humidity was maintained at 75±5%. The base (area=159 mm^2) of a 100 mL glass Erlenmeyer (conical) flask provided the treatment surface. Flasks were pretreated with Coatasil™ glass treatment to maximise bio-availability of test compounds by preventing them from binding to the glass surface.
The base of the 100 mL Erlenmeyer flask was treated with 0.5 mL of test sample in acetone and gently swirled. This volume was sufficient to cover the base of the flask. Flasks were left to dry for 24 hours before flea exposure. Adult cat fleas were lightly anaesthetised by cooling and then placed into a sorting chamber, which allowed fleas to revive and jump into the Erlenmeyer flasks. Fifteen (15) adult cat fleas were collected in each flask. The top of the flasks were then covered in Parafilm™ and small holes made to allow gas exchange. A 0.5 mL volume of acetone was applied to the base of an Erlenmeyer flask and the testing proceeded in the same manner described above. Cat fleas in the treatment containers were held under testing conditions for 24 hours. Mortality resulting from the treatments was recorded at 8 and 24 hours.

Rhipicephalus sanguineus [3] = experiment: Rapid screening protocol for topical application on brown dog ticks (% mortality); parameters: concentration or dose not given beside the values
Procedure: d) Rapid Screening Protocol for Topical Application on Brown Dog Ticks (Rhipicephalus sanguineus)
The aim of the test was to determine the presence of significant acaricidal activity in sample compounds or formulations when applied topically on brown dog ticks. A tick was defined as dead if it gave no apparent response when touched lightly and observed for 1 minute. To assess the experimental compound for acaricidal activity, a single dose level was chosen based on known results from previous experiments with a commercially available active reference compound. Both permethrin and fipronil were employed as reference compounds. The insect species tested was the Brown Dog Tick (Rhipicephalus sanguineus). Mixed sex adult ticks were used for tests. The strain used was cultured by von Berky Veterinary Services, Woody Point, QLD, AU and supplied as unfed adult ticks (mixed sex). Ticks were maintained in controlled conditions (temp. 18°±2° C., humidity 75±5% RH).
Test compounds (formulations or active ingredients) were stored in a refrigerator (5±1° C.) unless otherwise specified. Temperature was maintained at 25±1° C. and the humidity was ambient. The screening dose chosen was higher than that known to kill 90% of insects (LD90) using the reference compound. In the case of topical application of active compounds on adult ticks, the reference compound was fipronil and the dose chosen was 10 μg of active per tick (=10 μg of fipronil/1 μl of acetone). Ticks were each treated on the abdomen with 1 μL of a single dose level of test sample in acetone; ten ticks were treated with solvent only (acetone) in each test. Tests were replicated 4 times (total of 40 ticks treated). Ticks were held in recovery containers maintained under appropriate rearing conditions for 24 hours. Mortality resulting from the treatments was recorded at 24 hours. Pooled 24 hour mortality data were converted to percentages.

Rhipicephalus sanguineus [4] = experiment: Dose response protocol for topical application on brown dog ticks (LD50); conditions: 24 h mortality, probit analysis
Procedure: e) Dose response protocol for topical application on brown dog ticks (Rhipicephalus sanguineus): The test determines the level of insecticidal activity of sample compounds or formulations when applied topically on brown dog ticks. Sample compounds were stored prior to use in a freezer (−5±1° C.), unless otherwise specified.
• Mortality: A tick is defined as dead after it gives no apparent response when touched lightly or gently breathed upon, while observed for 30 seconds. • LD50 (Lethal Dose 50): The dose of a topically applied treatment at which 50% of the dog ticks are killed. • Reference compound: To assess an experimental compound for significant acaricidal activity a single dose level is chosen, which is based upon known results from previous experiments using a commercially available active i.e., a reference compound. The reference compound selected is one in common use, and one that has a similar mode of action against the Brown Dog Tick (i.e., the test species), • Recovery container: A recovery container consists of a 500 ml round plastic container measuring 115 mm diameter and 70 mm height, with a tight fitting lid that has 10 small (˜1 mm) holes inserted for air exchange. A 90 mm diameter piece of filter paper was placed on the bottom of the container and moistened with 1 mL of distilled water.
Adult, mixed sex, Brown Dog Ticks (Rhipicephalus sanguineus) were reared as follows: (i) cultured, (ii) transferred unfed, to a testing laboratory, and (iii) then maintained under controlled conditions (i.e., temp. 18°±2° C., humidity 75±5% RH). The ticks used were selected for vigor prior to testing, i.e., capable of actively walking and responsive to being touched or gently breathed upon.
During the testing, the temperature was maintained at 25±1° C. and the humidity was ambient. Seven dose levels (concentrations) of sample compound, in the form of serial dilutions in acetone, were derived from a pilot study and covered a range that produced very low to very high mortality. Groups of ten ticks were treated topically (on the abdomen) with 1 μL of a single dose level of the sample compound. Each test was replicated four times, i.e., employing a total of 40 ticks per dose level of each sample compound. As a control, ten ticks were treated with solvent only (acetone) for each test. Following the treatment, the ticks were held in recovery containers maintained under appropriate rearing conditions for 24 hours. Mortality resulting from the treatments was recorded at 24 hours. […] Press, London (1971).]

Structure (SMILES)	C. felis Mortality (%) 24 h (Ctenocephalides felis [1])	C. felis LC50 (Ctenocephalides felis [2]; data from laboratory 1) [ppm]	R. sanguineus Mortality (%) 24 h (Rhipicephalus sanguineus [3]; data from laboratory 1)	R. sanguineus Mortality (%) 24 h (Rhipicephalus sanguineus [3]; data from laboratory 2) [%]	C. felis Mortality (%) 8 h (Ctenocephalides felis [1]) [%]	C. felis LC50 (Ctenocephalides felis [2]) [ppm]	R. sanguineus LD50 (Rhipicephalus sanguineus [4]) [μg/tick]	C. felis Mortality (%) 48 h (Ctenocephalides felis [1]) [%]	C. felis Mortality (%) 24 h (Ctenocephalides felis [1]; 24 h, data from laboratory 1) [%]	C. felis Mortality (%) 48 h (Ctenocephalides felis [1]; 48 h, data from laboratory 1) [%]
CC(=NN(C)c1ccccc1)c1cc(Cl)ccc1NS(=O)(=O)C(F)(F)F [Compound 9]	100^B %	0.86	88%	98						
CC(=NN1CCOCC1)c1cc(Cl)ccc1NS(=O)(=O)C(F)(F)F [Compound 20]	100%		95^A %		100	0.86	0.75			
CC(=NN1CCCCC1)c1cc(Cl)ccc1NS(=O)(=O)C(F)(F)F [Compound 21, N-[2-[1-(1-piperidyl)imino]ethyl-4-chlorophenyl]-trifluoromethanesulfonamide]	100%	0.90	78^A %		100		0.64			
CC(=NN1CCOC1=O)c1cc(Cl)ccc1NS(=O)(=O)C(F)(F)F [Compound 23]	100%		95^A %		100	2.0	0.99			
CCCN(N=C(C)c1cc(Cl)ccc1NS(=O)(=O)C(F)(F)F)c1ccccc1 [Compound 25]	100%		75^A %		100	1.8	1.2			
CCN(N=C(C)c1cc(Cl)ccc1NS(=O)(=O)C(F)(F)F)c1ccc(Cl)cc1 [Compound 26]	100%			97		0.12	5.4	100		
CCCN(N=C(C)c1cc(Cl)ccc1NS(=O)(=O)C(F)(F)F)c1ccc(Cl)cc1 [Compound 27]	100%			95		0.23	5.5	100		
CCN(N=C(C)c1cc(Cl)ccc1NS(=O)(=O)C(F)(F)F)c1ccc(Cl)cc1Cl [Compound 30]	100%			90		5.2	8.5	100		
CCN(N=C(C)c1cc(Cl)ccc1NS(=O)(=O)C(F)(F)F)c1ccccc1 [Compound 34]		0.97		100			3.6		100	100
CCC(=NN1CCOC1=O)c1cc(Cl)ccc1NS(=O)(=O)C(F)(F)F [Compound 35]	100%			100		4.3	1.5	100		
CCC(=NN1CCOCC1)c1cc(Cl)ccc1NS(=O)(=O)C(F)(F)F [Compound 36]	100%			100		2.5	1.8	100		
CCN(N=C(C)c1cc(Cl)ccc1NS(=O)(=O)C(F)(F)F)c1cccc(Cl)c1 [Compound 38]	100%			98		2.5	3.6	100		
CCN(N=C(C)c1cc(Cl)ccc1NS(=O)(=O)C(F)(F)F)c1ccc(F)cc1 [Compound 39]	100%			100		0.14	3.6	100		
CCCN(N=C(C)c1cc(Cl)ccc1NS(=O)(=O)C(F)(F)F)c1ccc(C(F)(F)F)cc1 [Compound 41]	94%			100		0.44	3.8	100		
CCN(N=C(C)c1cc(Cl)ccc1NS(=O)(=O)C(F)(F)F)c1ccccc1F [Compound 43]	90%			100		0.35	3.0	100		
CC(=NN(c1ccc(F)cc1)C(C)C)c1cc(Cl)ccc1NS(=O)(=O)C(F)(F)F [Compound 48]	100%			80	95	0.64	6.3			
CC(=NN(C)c1ccccc1F)c1cc(Cl)ccc1NS(=O)(=O)C(F)(F)F [Compound 49]	100%	0.31		100	100		1.6			
CC(=NN(C)c1cccc(Cl)c1)c1cc(Cl)ccc1NS(=O)(=O)C(F)(F)F [Compound 51]	100%			100	100	0.82	2.6			
CCN(N=C(C)c1cc(Cl)ccc1NS(=O)(=O)C(F)(F)F)c1ccc(Br)cc1 [Compound 54]	100%			95	95	1.6	5.6			
CC(=NN(C)c1ccc(Br)cc1)c1cc(Cl)ccc1NS(=O)(=O)C(F)(F)F [Compound 63]	100%			100	100	2.4				
CC(=NN(C)c1ccc(C)cc1)c1cc(Cl)ccc1NS(=O)(=O)C(F)(F)F [Compound 75]	100%			100	100	1.4				
